Results: US8735398B2 (Bristol-Myers Squibb Company, priority 2009, dated 2014)
Where two headings read alike, the source gives them in different places.

Tested on: HCV 1b genotype
Assay: HCV replicon assay (HCV-neo replicon cells, wild-type)
Assay type: cell-based, Hepatitis C virus
Conditions: HCV 1b genotype replicon
Protocol: An HCV Replicon assay was utilized in the present disclosure, and was prepared, conducted and validated as described in commonly owned PCT/US2006/022197 and in O'Boyle et al., Antimicrob. Agents Chemother, 49(4):1346-1353 (April 2005). Assay methods incorporating luciferase reporters have also been used as described (Apath.com).
HCV-neo replicon cells and replicon cells containing resistance substitutions in the NS5A region were used to test the currently described family of compounds.
The compounds were determined to have differing degrees of reduced inhibitory activity on cells containing mutations vs. the corresponding inhibitory potency against wild-type cells. Thus, the compounds of the present disclosure can be effective in inhibiting the function of the HCV NS5A protein and are understood to be as effective in combinations as previously described in application PCT/US2006/022197 and commonly owned WO 04/014852. It should be understood that the compounds of the present disclosure can inhibit multiple genotypes of HCV. […] In one embodiment, compounds of the present disclosure are inhibitory versus 1a, 1b, 2a, 2b, 3a, 4a, and 5a genotypes.

[1] = Hepatitis C virus, class symbol, read-out: EC50 Range against HCV 1b
[2] = Hepatitis C virus, class symbols, read-out: EC50 Range against HCV 1b
[3] = Hepatitis C virus, read-out: EC50 1b

Question: `C[C@H](NC(=O)[C@@H]1CCCO1)C(=O)Nc1ccc(-c2nnc(-c3ccc(NC(=O)[C@H](C)NC(=O)[C@@H]4CCCO4)cc3)o2)cc1` [RK-34, (2S,2′S)-N,N′-(1,3,4-oxadiazole-2,5-diylbis(4,1-phenyleneimino((2S)-1-oxo-1,2-propanediyl)))ditetrahydro-2-furancarboxamide] was tested. Which EC50 (class symbols, read-out: EC50 Range against HCV 1b) did it give?
Answer: 1000 to 10000 nM

Question: How did the EC50 [1] turn out when `O=C(Nc1ccc(-c2cc(-c3ccc(NC(=O)[C@@H]4CCCN4C(=O)OCc4ccccc4)cc3)[nH]n2)cc1)[C@@H]1CCCN1C(=O)OCc1ccccc1` [OL-26, (2S,2′S)-2,2′-[1H-pyrazole-3,5-diylbis(4,1-phenyleneiminocarbonyl)]bis-1-pyrrolidinecarboxylic acid, bis(phenylmethyl) ester] was run?
Answer: 4.57 to 99 nM

Question: Which EC50 [1] does the source give for `O=C(Nc1ccc(-c2cc(-c3ccc(NC(=O)[C@@H]4C=CCN4C(=O)C4CC4)cc3)[nH]n2)cc1)[C@@H]1C=CCN1C(=O)C1CC1` [OL-37, (2S,2′S)-N,N′-(1H-pyrazole-3,5-diyldi-4,1-phenylene)bis(1-(cyclopropylcarbonyl)-2,5-dihydro-1H-pyrrole-2-carboxamide)] here?
Answer: 1000 to 10000 nM

Question: Which EC50 [2] does the source give for `CC(C)(C)O[C@@H]1C[C@@H](C(=O)Nc2ccc(-c3cnc(-c4ccc(NC(=O)[C@@H]5C[C@@H](OC(C)(C)C)CN5C(=O)CC5CC5)cc4)o3)cc2)N(C(=O)CC2CC2)C1` [XY-61, (2S,4R,2′S,4′R)-N,N′-(1,3-oxazole-2,5-diyldi-4,1-phenylene)bis(4-tert-butoxy-1-(cyclopropylacetyl)-2-pyrrolidinecarboxamide)] here?
Answer: 100 to 999 nM

Question: With `CC(=O)N1CCC[C@H]1C(=O)Nc1ccc(-c2ncc(-c3ccc(NC(=O)[C@@H]4CCCN4C(=O)Cc4ccccc4)cc3)o2)cc1` [MS-6, (2S)-1-acetyl-N-(4-(5-(4-((((2S)-1-(phenylacetyl)-2-pyrrolidinyl)carbonyl)amino)phenyl)-1,3-oxazol-2-yl)phenyl)-2-pyrrolidinecarboxamide] as the compound, how does the EC50 [1] read?
Answer: 100 to 999 nM

Question: And the EC50 [3]?
Answer: 188 nM

Question: How did the EC50 [1] turn out when `O=C(Nc1ccc(-c2ccc(-c3ccc(NC(=O)[C@@H]4CCCN4C(=O)Cc4ccccc4)cc3)s2)cc1)[C@@H]1CCCN1C(=O)Cc1ccccc1` [OL-22, (2S,2′S)-N,N′-(2,5-thienediyldi-4,1-phenylene)bis(1-(phenylacetyl)-2-pyrrolidinecarboxamide)] was run?
Answer: 4.57 to 99 nM

Question: How did the EC50 [1] turn out when `CC(=O)N1CCC[C@H]1C(=O)Nc1ccc(-c2cnc(-c3ccc(NC(=O)[C@@H]4C=CCN4C(=O)c4ccno4)cc3)o2)cc1` [Example D-3, (2S)-N-[4-[5-[4-[[[(2S)-1-acetyl-2-pyrrolidinyl]carbonyl]amino]phenyl]-2-oxazolyl]phenyl]-2,5-dihydro-1-(5-isoxazolylcarbonyl)-1H-pyrrole-2-carboxamide] was run?
Answer: 1000 to 10000 nM

Question: `CC(=O)N1CCC[C@H]1C(=O)Nc1ccc(-c2nc(-c3ccc(NC(=O)[C@@H]4C=CCN4C(=O)Cc4ccccc4)cc3)cs2)cc1` [Example D-49, (2S)-N-[4-[2-[4-[[[(2S)-1-acetyl-2-pyrrolidinyl]carbonyl]amino]phenyl]-4-thiazolyl]phenyl]-2,5-dihydro-1-(phenylacetyl)-1H-pyrrole-2-carboxamide] was tested. Which EC50 [1] did it give?
Answer: 1000 to 10000 nM

Question: `O=C(Nc1ccc(-c2nnc(-c3ccc(NC(=O)[C@@H]4CCCN4C(=O)Cc4cccs4)cc3)o2)cc1)[C@@H]1CCCN1C(=O)Cc1cccs1` [Example D-61, (2S,2′S)-N,N′-(4,4′-(1,3,4-oxadiazole-2,5-diyl)bis(4,1-phenylene))bis(1-(2-(thiophen-2-yl)acetyl)pyrrolidine-2-carboxamide)] was tested. Which EC50 [1] did it give?
Answer: 100 to 999 nM

Question: What about the EC50 [3] of the same compound?
Answer: 327 nM

Question: `O=C(Nc1ccc(-c2nnc(-c3ccc(NC(=O)[C@@H]4CCCN4C(=O)CC4CC4)cc3)o2)cc1)[C@@H]1CCCN1C(=O)CC1CC1` [Example D-57, (2S,2′S)-N,N′-(1,3,4-oxadiazole-2,5-diyldi-4,1-phenylene)bis[1-(cyclopropylacetyl)-2-pyrrolidinecarboxamide]] was tested. Which EC50 [1] did it give?
Answer: 1000 to 10000 nM

Question: What about the EC50 [3] of the same compound?
Answer: 1950 nM

Question: `CN(C)[C@@H](C(=O)N1[C@H](C(=O)N2CCC[C@H]2C(=O)Nc2ccc(-c3cnc(-c4ccc(NC(=O)[C@@H]5CCCN5C(=O)[C@@H]5C[C@@H]6C[C@@H]6N5C(=O)[C@@H](c5ccccc5)N(C)C)cc4)o3)cc2)C[C@@H]2C[C@@H]21)c1ccccc1` [Example D-40, (2S,2′S)-N,N′-(1,3-oxazole-2,5-diyldi-4,1-phenylene)bis(1-(((1S,3S,5S)-2-((2R)-2-(dimethylamino)-2-phenylacetyl)-2-azabicyclo[3.1.0]hex-3-yl)carbonyl)-2-pyrrolidinecarboxamide)] was tested. Which EC50 [1] did it give?
Answer: 100 to 999 nM

Question: For `Cn1cncc1C(O)C(=O)N1CCC[C@H]1C(=O)Nc1ccc(-c2cnc(-c3ccc(NC(=O)[C@@H]4CCCN4C(=O)C(O)c4cncn4C)cc3)o2)cc1` (stereo partly drawn) [JR-3, (2S,2′S)-N,N′-(2,5-oxazolediyldi-4,1-phenylene)bis[1-[hydroxy(1-methyl-1H-imidazol-5-yl)acetyl]-2-pyrrolidinecarboxamide]], which EC50 [2] is on record?
Answer: 100 to 999 nM

Question: For `O=C(Nc1ccc(-c2nnc(-c3ccc(NC(=O)[C@@H]4CCCN4C(=O)[C@@H](O)c4ccccc4)cc3)o2)cc1)[C@@H]1CCCN1C(=O)[C@@H](O)c1ccccc1` [RK-17, (2S,2′S)-N,N′-(1,3,4-oxadiazole-2,5-diyldi-4,1-phenylene)bis(1-((2S)-2-hydroxy-2-phenylacetyl)-2-pyrrolidinecarboxamide)], which EC50 [1] is on record?
Answer: 100 to 999 nM

Question: For `O=C(Nc1ccc(-c2cnc(-c3ccc(NC(=O)[C@@H]4CCCN4C(=O)c4ccoc4)cc3)o2)cc1)[C@@H]1CCCN1C(=O)c1ccoc1` [XY-38, (2S,2′S)-N,N′-(1,3-oxazole-2,5-diyldi-4,1-phenylene)bis(1-(3-furoyl)-2-pyrrolidinecarboxamide)], which EC50 [2] is on record?
Answer: 4.57 to 99 nM

Question: With `CN(C)[C@@H](C(=O)N1CCCC1C(=O)Nc1ccc(-c2ncc(-c3ccc(NC(=O)[C@@H]4CCCN4C(=O)[C@@H](c4ccccc4)N(C)C)cc3)o2)cc1)c1ccccc1` (stereo partly drawn) [OL-51, (2S)-N,N′-(1,3-oxazole-2,5-diyldi-4,1-phenylene)bis(1-((2R)-2-(dimethylamino)-2-phenylacetyl)-2-pyrrolidinecarboxamide)] as the compound, how does the EC50 [1] read?
Answer: 4.57 to 99 nM

Question: Which results are given for `CN(C)[C@H](C(=O)N1CCC[C@H]1C(=O)Nc1ccc(-c2nnc(-c3ccc(NC(=O)[C@@H]4CCCN4C(=O)[C@H](c4ccccc4)N(C)C)cc3)o2)cc1)c1ccccc1` [RK-39, (2S,2′S)-N,N′-(1,3,4-oxadiazole-2,5-diyldi-4,1-phenylene)bis(1-((2S)-2-(dimethylamino)-2-phenylacetyl)-2-pyrrolidinecarboxamide)]?
Answer: EC50 [2]: < 4.57 nM; EC50 [3]: < 5 nM

Question: For `COc1cc(C(=O)N2CCC[C@H](C(=O)Nc3ccc(-c4nnc(-c5ccc(NC(=O)[C@H]6CCCN(C(=O)c7cc(OC)c8ccccc8n7)C6)cc5)o4)cc3)C2)nc2ccccc12` [RK-26, (3S,3′S)-N,N′-(1,3,4-oxadiazole-2,5-diyldi-4,1-phenylene)bis(1-((4-methoxy-2-quinolinyl)carbonyl)-3-piperidinecarboxamide)], which EC50 [1] is on record?
Answer: 1000 to 10000 nM

Question: How did the EC50 [2] turn out when `O=C(Nc1ccc(-c2cnc(-c3ccc(NC(=O)[C@@H]4CCCN4C(=O)C(O)C(F)(F)F)cc3)o2)cc1)[C@@H]1CCCN1C(=O)C(O)C(F)(F)F` (stereo partly drawn) [JR-2, (2S,2′S)-N,N′-(2,5-oxazolediyldi-4,1-phenylene)bis[1-(3,3,3-trifluoro-2-hydroxy-1-oxopropyl)-2-pyrrolidinecarboxamide]] was run?
Answer: 100 to 999 nM
